Read-outs that look alike come from different tables or passages of the source.
Legend:
[1] = test system: T. cruzi amastigotes (Tulahuen C2C4-LacZ); test: Trypanocidal activity against intracellular amastigotes (CPRG, beta-galactosidase); type: cell-based, Trypanosoma cruzi; conditions: for Selective Index: LLC-MK2 IC50 vs T. cruzi amastigote IC50; for IC50: 120 h, in LLC-MK2 host cells
Description: The antiparasitic activity assays used the Tulahuen C2C4-LacZ strain of the Trypanosoma cruzi parasite, being evaluated in the amastigote forms. […] Trypomastigote forms were collected from the culture supernatant between the 5th and 10th day after infection and separated from non-adherent cells by differential centrifugation. Epimastigote evolutionary form parasites were cultivated in LIT medium (Liver Infusion Tryptose), supplemented with hemin (25 mg/L) + 10% FBS, and incubated at 28 °C, performing successive passages every 6–7 days.
Non-internalized parasites were removed by three successive washes with PBS, followed by treatment with increasing concentrations of the hybrids (0.64–100 µM) in triplicates, pre-diluted in DMEM + 2% FBS. Untreated vehicle (0.2% v/v DMSO) and blank (no added parasites) controls were included in the experiment. Increasing concentrations of Benznidazole were used as the positive control. After incubation for 5 days (120 h), 30 µL of 0.5 mM chlorophenol red substrate β-galactopyranoside (CPRG) in PBS was added with 0.9% v/v of Igepal CA-630.

[2] = Cytotoxicity (MTT) on LLC-MK2 host cells; type: cell-based; conditions: rhesus monkey
From the text: (§1) Mammalian cells were used to evaluate the cytotoxicity of the tested compounds. […] Cells were dissociated from the monolayer by treatment with a solution containing 0.25% w/v trypsin and 0.04% EDTA.

[3] = test system: A549 cells; test: Antiproliferative activity (MTT) against A549 tumor cell line; type: cell-based, human; conditions: for IC50: read-out: A549 IC50; for Selective Index SI A549: PBMC LD50 vs A549 IC50
Description: (§2) Cells were treated with increasing concentrations of the hybrids in triplicates, pre-diluted in DMEM + 2% FBS, and incubated for 120 h. The toxic effect of the molecules was also evaluated on human lung cancer cell lines (A549 and H460), as well as on PBMC. […] In all experiments, untreated controls, vehicle (0.2% v/v DMSO), and blanks (no added cells) were included. […] Then, 20 µL of 3.0 mM MTT saline was added and incubated for another 1.5 h. The supernatant was removed, and the MTT formazan crystals were dissolved by adding 120 µL/well of DMSO. After incubation for 1.5 h to dissolve the MTT crystals away from light and at 37 °C, the absorbance was measured at λ = 570 nm using a plate reader.

[4] = test system: H460 cells; test: Antiproliferative activity (MTT) against H460 tumor cell line; type: cell-based, human; conditions: for IC50: read-out: H460 IC50; for Selective Index SI H460: PBMC LD50 vs H460 IC50; for Fold increase in potency compared with analog 7, H460: IC50 ratio vs 7
Description: as §2

[5] = Stability in PBS by HPLC-DAD; type: physicochemical; conditions: PBS pH 7.4, 37 °C; for Chemical stability in PBS: 24 h incubation
Description: The analytical conditions were as follows: Column Restek, Allure Organic Acid C18, 150 mm × 4.6 mm × 5 µm (Bellefonte, PA, USA); mobile phase, 40% water with 0.1% formic acid, 60% acetonitrile with 0.1% formic acid, 1.0 mL/min, isocratic elution; injection volume, 5 µL; detectors, PDA (200–800 nm). […] After incubation, 100 µL of reaction mixtures were added to 900 µL of HPLC mobile phase and injected.

[6] = test system: A549 cells; test: Cell cycle analysis by PI flow cytometry; type: cell-based, human; conditions: A549, 72 h treatment at IC50; for Cells in G2-M phase: control approximately 20%
Description: The cell cycle phase was determined using a PI solution, according to a method described elsewhere. […] Cell cycle determination was performed on a FACScalibur flow cytometer (BD Biosciences, San Diego, CA, USA). Post-analysis of the cell cycle assay was performed using Summit software (version 4.3, Dako Colorado, Fort Collins, CO, USA).

[7] = test system: peripheral blood mononuclear cells (PBMC); conditions: human, 72 h
Description: as §2

[8] = test system: T. cruzi epimastigotes (Y strain); parameters: method as in PMID 27658305; conditions: read-out: IC50 against epimastigotes (Y strain); cited from earlier work
[9] = test system: T. cruzi (Y strain) amastigotes; parameters: method as in PMID 27658305; conditions: cited from earlier work
[10] = test system: peripheral blood mononuclear cells (PBMC); test: Cytotoxicity (MTT) on peripheral blood mononuclear cells; conditions: for PBMC LD50: 72 h, MTT
Description: as §2

[11] = test system: A549 cells; test: Cell death analysis by Annexin V/PI flow cytometry; type: cell-based, human; conditions: A549, 48 h at IC50; control 2.38%
Description: Cell death analysis was performed by using an Annexin V/PI double staining kit (PharMingen, San Diego, CA, USA) as previously described. For the assay, the cells were plated at a density of 1 × 10^6 cells/well in six-well plates, 2 mL/well. […] After incubating for 15 min at room temperature in the dark, 400 µL of binding buffer was added. The two-color flow cytometry analysis was performed on a FACSCalibur device (Becton Dickinson, Franklin Lakes, NJ, USA). Post-analysis was performed in Summit software (version 4.3, Dako Colorado, Fort Collins, CO, USA).

[12] = test system: LLC-MK2 (host cells); test: Cytotoxicity (MTT) on LLC-MK2 host cells; type: cell-based; conditions: 120 h, MTT
From the text: as §1

[13] = Homo sapiens, NCI-H460, 72 h, MTT

Compound | Selective Index [1] | IC50 ([1]; Trypanosoma cruzi, TULAHUEN) | IC50 at 120 h [2] | PBMC LD50 [7] | IC50 ([3]; Homo sapiens, A549, 72 h, MTT) | Selective Index SI A549 [3] | IC50 [4, 13] | Selective Index SI H460 [4] | other results
O=C(Cn1ccnc1[N+](=O)[O-])NCc1ccccc1 [Benznidazole, reference compound] | > 133 | 1.5 ± 0.33 µM | > 200 µM | – | – | – | – | – | –
N.N.[Cl][Pt][Cl] [Cisplatin, reference compound] | – | – | – | – | – | – | – | – | IC50 ([3]; 72 h, MTT): 6.05 ± 0.58 µM; IC50 ([4]; 72 h, MTT): 2.96 ± 0.44 µM
COc1cc(/C=C/C(=O)CC(=O)/C=C/c2ccc(O)c(OC)c2)ccc1O [Compound 1, (1E,6E)-1,7-Bis(4-hydroxy-3-methoxyphenyl)hepta-1,6-dien-3,5-dione, reference compound] | – | 17.8 ± 6.88 µM | 25.7 ± 6.05 µM | 146.5 ± 12.08 µM | – | – | – | – | IC50 ([3]; Homo sapiens, A549, 72 h): 56.5 ± 3.75 µM; IC50 ([4]; Homo sapiens, NCI-H460, 72 h): 37.9 ± 8.81 µM; Fraction decomposed in PBS [5]: approximately 70%; Cells in G2-M phase [6]: 80%; IC50 [8]: 10.1 µM; Amastigote release from infected mouse macrophages [9]: inhibited amastigote release
O=C(/C=C/c1ccc(O)cc1)CC(=O)/C=C/c1ccc(O)cc1 [Compound 3, (1E,6E)-1,7-Bis(4-hydroxyphenyl)hepta-1,6-diene-3,5-dione, reference compound] | 1.11 | 17.6 ± 0.26 µM | 19.7 ± 0.87 µM | 134.1 ± 13.30 µM | 46.5 ± 3.45 µM | 2.88 | 27.1 ± 4.35 µM | – | –
COc1cc(/C=C/C(=O)/C=C/c2ccc(O)c(OC)c2)ccc1O [Compound 4, (1E,4E)-1,5-Bis(4-hydroxy-3-methoxyphenyl)penta-1,4-dien-3-one] | – | 3.92 ± 0.33 µM | < 6.4 µM | – | – | – | – | > 19.60 | IC50 ([3]; Homo sapiens, A549, 72 h): 18.1 ± 4.72 µM; IC50 ([4]; Homo sapiens, NCI-H460, 72 h): 10.2 ± 3.76 µM; Chemical stability in PBS [5]: remained untouched; PBMC LD50 [10]: >200 µM; Toxic effects against peripheral blood mononuclear cells ([10]; higher concentration tested): did not present toxic effects
COc1cc(/C=C/C(=O)c2ccc(O)c(OC)c2)ccc1O [Compound 5, (E)-1,3-Bis(4-hydroxy-3-methoxyphenyl)prop-2-en-1-one] | 0.55 | 15.6 ± 4.08 µM | – | 119.1 ± 16.35 µM | 58 ± 6.75 µM | 2.05 | 1.74 ± 0.28 µM | 68.44 | IC50 at 120 h ([2]; 120 h, MTT, read-out: LLC-MK2 (Host Cells) 120 h IC50): 8.72 ± 2.42 µM
COc1cc(/C=C2\CC/C(=C\c3ccc(O)c(OC)c3)C2=O)ccc1O [Compound 6, 2,5-Bis((E)-4-hydroxy-3-methoxybenzylidene)cyclopentan-1-one] | – | 8.35 ± 2.35 µM | < 6.4 µM | 141.1 ± 18.53 µM | 71.3 ± 1.53 µM | 1.97 | 36.1 ± 7.14 µM | 3.90 | –
COc1cc(/C=C2\CCC/C(=C\c3ccc(O)c(OC)c3)C2=O)ccc1O [Compound 7, 2,6-Bis((E)-4-hydroxy-3-methoxybenzylidene)cyclohexan-1-one] | – | 4.91 ± 0.4 µM | < 6.4 µM | >200 µM | 76.2 ± 9.49 µM | – | 42.6 ± 3.94 µM | – | –
COc1cc(/C=C2\COC/C(=C\c3ccc(O)c(OC)c3)C2=O)ccc1O [Compound 8, (3E,5E)-3,5-Bis(4-hydroxy-3-methoxybenzylidene)tetrahydro-4H-pyran-4-one] | 1.60 | 12.8 ± 5.17 µM | 20.6 ± 4.65 µM | 131.8 ± 14.52 µM | 8.1 ± 1.27 µM | 16.27 | 1.46 ± 0.28 µM | – | Fold increase in potency compared with parent derivative 7, A549 ([3]; IC50 ratio vs 7): ~10 fold; Fold increase in potency compared with analog 7, H460 [4]: ~30 fold; Chemical stability in PBS [5]: remained untouched
COc1cc(/C=C2\CN(C)C/C(=C\c3ccc(O)c(OC)c3)C2=O)ccc1O [Compound 9, (3E,5E)-3,5-Bis(4-hydroxy-3-methoxybenzylidene)-1-methylpiperidin-4-one] | 2.95 | 9.6 ± 1.61 µM | 28.4 ± 3.8 µM | 73.25 ± 5.87 µM | 61.1 ± 6.2 µM | 1.19 | 9.89 ± 3.03 µM | 7.40 | Fold increase in potency compared with analog 7, H460 [4]: 4.3 fold
COc1cc(/C=C2\CSC/C(=C\c3ccc(O)c(OC)c3)C2=O)ccc1O [Compound 10, (3Z,5Z)-3,5-Bis(4-hydroxy-3-methoxybenzylidene)dihydro-2H-thiopyran-4(3H)-one] | 2.20 | 5.87 ± 2.89 µM | 13 ± 2.36 µM | 186.4 ± 35.15 µM | 37 ± 8.28 µM | 5.04 | 12.8 ± 3.94 µM | 14.56 | –
COc1cc(/C=C2\C[S+]([O-])C/C(=C\c3ccc(O)c(OC)c3)C2=O)ccc1O (stereo not drawn) [Compound 11, (3Z,5Z)-3,5-Bis(4-hydroxy-3-methoxybenzylidene)dihydro-2H-thiopyran-4(3H)-one 1-oxide] | 1.70 | 16.7 ± 4.67 µM | 28.5 ± 5.17 µM | >200 µM | 7.74 ± 1.65 µM | – | 1.02 ± 0.29 µM | > 196.07 | –
COc1cc(/C=C2\CS(=O)(=O)C/C(=C\c3ccc(O)c(OC)c3)C2=O)ccc1O [Compound 12, (3Z,5Z)-3,5-Bis(4-hydroxy-3-methoxybenzylidene)dihydro-2H-thiopyran-4(3H)-one 1,1-dioxide] | 1.56 | 7.33 ± 0.43 µM | 11.5 ± 3.71 µM | 173.0 ± 37.4 µM | 5.89 ± 2.81 µM | 29.37 | 0.27 ± 0.2 µM | 640.74 | Cells in sub-G0 phase [6]: 30%; Cells in G2-M phase [6]: 60%; Double-positive cells for annexin and PI (late apoptosis) [11]: 14.98%
(1E,6E)-1-(4-Hydroxy-3-methoxyphenyl)-7-(4-hydroxyphenyl)hepta-1,6-dien-3,5-dione [Compound 2, reference compound] | 0.72 | – | – | – | – | 1.96 | – | 5.76 | IC50 ([3]; 72 h, MTT): 73.3 ± 6.98 µM; IC50 ([4]; 72 h, MTT): 25.1 ± 5.55 µM; IC50 [1]: 31.3 ± 0.77 µM; IC50 [12]: 22.7 ± 3.71 µM; PBMC LD50 [10]: 144.3 ± 12.30 µM

From article PMC12030033, “Design and Synthesis of Bis-Chalcones as Curcumin Simplified Analogs and Assessment of Their Antiproliferative Activities Against Human Lung Cancer Cells and Trypanosoma cruzi Amastigotes” (Pharmaceuticals, 2025)
